Source: US7884262B2, “Modified DMO enzyme and methods of its use” (Monsanto Technology LLC, priority 2006, dated 2011)
Values joined by “and” are separate entries in the source; they are usually repeats but may differ in a detail not shown here. Identical values can stand only once. “Also recorded” adds a separate entry of the source. Like-named read-outs stand apart in the source and are kept apart here.

How the values were obtained:
[1] = tested on: nontransgenic tobacco plants; details: for Herbicide damage symptoms: spray
Description: (§1) Plants in the greenhouse were sprayed with solvent and commercial grade dicamba (Clarity; BASF) using a compressed air, motor-driven, track sprayer with a flat-fan 8002E nozzle traveling at 1.87 mph. Additives included; 28% urea ammonium nitrate at 1.25% v/v and nonionic surfactant at 1.0% v/v. The solution containing dicamba at various concentrations was applied at 182 L/ha ([…]). Soybean field plantings were sprayed with Clarity herbicide at 2.8 kg/ha (2.5 lb/ac).
(§2) In this study, the concentration of dicamba employed provided a dose of 1.12 kg/ha. […] In this study, treatments were compared using 2.2 kg/ha dicamba on two T1 tobacco plants, one carrying DMOc lacking a chloroplast transit peptide and the other completely lacking the DMOc gene due to genetic segregation.

[2] = tested on: Arabidopsis thaliana expressing the DMOc gene; details: 1.12 kg/ha
Description: (§3) Tobacco, tomato, soybeans and Arabidopsis were used for transgenic expression of the genetically engineered DMOc gene and confirmation of dicamba tolerance in plants expressing the gene. The DMOc coding sequence in binary vector pKLP36 was introduced into A. tumefaciens strain C58C1 containing the disarmed Ti plasmid pMP90 (Koncz and Schell, 1986) by triparental mating (Ditta 1980). The resultant transconjugants were used for tobacco (cv Xanthi) and tomato (cv Rutgers) transformation using the leaf disc protocol described by Horsch et al. (Horsch 1985). Arabidopsis thaliana was transformed by the floral dip technique (Clough and Bent, 1998). Transformation of soybean varieties Thorne and NE-3001 was carried out by cotyledonary-node Agrobacterium-mediated transformation system (Zhang et al., 1999).
as §1, §2

[3] = tested on: DMOc-containing transgenic tobacco plants
Description: as §3, §1, §2

[4] = tested on: Transgenic tomato plants carrying the genetically engineered DMOc gene; details: first 0.56 kg/ha and subsequently 5.6 kg/ha
Description: as §3, §1, §2

transgenic soybean lines = tested on: transgenic soybean lines
Description: as §3, §1

[5] = tested on: homoplastidic transgenic tobacco plants containing a chloroplast-encoded dicamba monooxygenase gene
[6] = DMO activity assay (DCSA formation by HPLC), steady state kinetics, pH and temperature optimum; type: biochemical
Procedure: Protein concentrations were determined by Bradford assay with rabbit IgG as standard. Proteins were separated by SDS-PAGE and stained with Coomassie Blue. DMO activity was measured by following the formation of DCSA which was separated by HPLC (Waters Corporation, Milford, Mass.) by using a Discovery C18 column (Supelco, Sigma-Aldrich, St. Louis, Mo.). The retention time for DCSA was 8 minutes and for dicamba was 9.5 minutes. For kinetic studies the DCSA was detected and quantified by fluorescence emission at 420 nm (excitation wavelength 310 nm) after separation on the HPLC column from reaction mixture. Set concentrations of DCSA (12 and 24 μM) were used as quantification standards.
Stock solution of dicamba (100, 200, 400, 800, 1000, 2000, 5000, and 10000 μM), 0.1 M KPi pH 7.2, 0.1 M FeSO4, 0.1 M NADH, and 1 M MgCl2 were used. The assays were performed at 30° C. for 20 minutes and the reaction was quenched by addition of 40 μl of H2SO4. For activity measurements DMO was coupled with an excess of purified ferredoxin and reductase from P. maltophilia strain DI-6.
Since the assay for DMO activity was a discontinuous assay, it was important to establish the time for which the assay has to be run in order to obtain meaningful kinetic parameters. The assay thus has to be run under initial condition as the amount of DCSA produced is linear for the time the assay is being run (FIG. 4). […] (FIG. 6).
The Michaelis-Menten parameters were determined by fitting the data to a nonlinear steady-state equation (Equation 1). The data were analyzed using Sigma plot 8.0 (Jandel Scientific). Vo=Vmax*[S]/(Km+[S]) Equation 1
The optimum pH and temperature were also determined for DMOw and DMOc. Optimum pH was measured at 30° C. for 20 minutes and optimum temperature determination was measured also for 20 minutes at pH 7.2 for both forms of the enzyme. The results are summarized in FIGS. 7-9 and are discussed below.

[7] = steady state, substrate dicamba
[8] = steady state, substrate dicamba, 30° C., 20 minutes

COc1c(Cl)ccc(Cl)c1C(=O)O [dicamba, 3,6-dichloro-o-anisic acid]
Herbicide damage symptoms ([1]; 0.017 kg/ha): easily detected
Herbicide damage symptoms ([1]; 0.28 kg/ha): quite severe
Herbicide damage symptoms ([1]; 0.56 kg/ha): quite severe
damage caused by dicamba treatment ([1]; 2.2 kg/ha, T1 plant lacking the DMOc gene due to genetic segregation): fully susceptible
damage ([1]; 5.6 kg/ha, post-emergence, nontransgenic plant): severe damage
tolerance [2]: strong tolerance
symptoms ([3]; 5.6 kg/ha, post-emergence): few, if any symptoms
dicamba treatment level tolerated ([3]; transgenic tobacco expressing DMOc): ≥ 5.6 kg/ha
damage [4]: no damage
tolerance (transgenic soybean lines; 2.8 kg/ha (highest level tested), two years of field trials): strong tolerance
tolerance (transgenic soybean lines; 2.8 kg/ha, greenhouse, most lines): significant tolerance
tolerance (transgenic soybean lines; 5.6 kg/ha, greenhouse, most lines): significant tolerance
dicamba treatment level tolerated (transgenic soybean lines; DMOc in nuclear genome of soybean plants): 2.8 kg/ha
damage ([5]; 28 kg/ha (25 lb/ac), T1-T3 progeny): no apparent damage
damage ([5]; 112 kg/ha): only transitory damage
damage ([5]; 224 kg/ha): only transitory damage
dicamba tolerance level ([5]; DMOc gene in chloroplast genome): at least 28 kg/ha

B1: DMOc: dicamba monooxygenase (DMO) variant comprising a cysteine at position 112 of SEQ ID NO:1 (protein)
chain: MATFVRNAWYVAALPEELSEKPLGRTILDTPLALYRQPDGVVAALLDICPHRFAPLSDGILVNGHLQCPYHGLEFDGGGQCVHNPHGNGARPASLNVRSFPVVERDALIWICPGDPALADPGAIPDFGCRVDPAYRTVGGYGHVDCNYKLLVDNLMDLGHAQYVHRANAQTDAFDRLEREVIVGDGEIQALMKIPGGTPSVLMAKFLRGANTPVDAWNDIRWNKVSAMLNFIAVAPEGTPKEQSIHSRGTHILTPETEASCHYFFGSSRNFGIDDPEMDGVLRSWQAQALVKEDKVVVEAIERRRAYVEANGIRPAMLSCDEAAVRVSREIEKLEQLEAA
catalytic efficiency relative to DMOw ([6]; DMOc vs DMOw): five times better enzyme than DMOw; also recorded: five times more efficient than DMOw
Km ([6]; DMOc, Study no. 1-2): 21 µM and 20 µM
Vmax ([6]; DMOc, Study no. 1-2): 713 ± 43 nmol/min/mg and 676 ± 37 nmol/min/mg
Km ([6]; Michaelis-Menten parameters): 20.5 ± 5 µM
Vmax ([6]; Michaelis-Menten parameters): 676 ± 37 nmol/min/mg
Vmax [6, 7]: 676 ± 37 × 10^−3 U/mg
kcat [6, 7]: 70.41 s⁻¹
Km [6, 8]: 20 µM

B2: DMOw: unaltered (wild type) dicamba monooxygenase sequence from Pseudomonas maltophilia, strain DI-6; U.S. Pat. No. 7,022,896 (protein, UniProt Q5S3I3 2-339, looked up)
Dicamba O-demethylase, …: TFVRNAWYVAALPEELSEKPLGRTILDTPLALYRQPDGVVAALLDICPHRFAPLSDGILVNGHLQCPYHGLEFDGGGQCVHNPHGNGARPASLNVRSFPVVERDALIWIWPGDPALADPGAIPDFGCRVDPAYRTVGGYGHVDCNYKLLVDNLMDLGHAQYVHRANAQTDAFDRLEREVIVGDGEIQALMKIPGGTPSVLMAKFLRGANTPVDAWNDIRWNKVSAMLNFIAVAPEGTPKEQSIHSRGTHILTPETEASCHYFFGSSRNFGIDDPEMDGVLRSWQAQALVKEDKVVVEAIERRRAYVEANGIRPAMLSCDEAAVRVSREIEKLEQLEAA
optimum pH for the assay ([6]; 0.1 M Kpi buffer, 30° C., 20 minutes): 7.2
Km ([6]; DMOw, Study no. 1-3): 49 µM and 46 µM
Vmax ([6]; DMOw, Study no. 1-3): 633 ± 24 nmol/min/mg and 583 ± 18 nmol/min/mg and 590 ± 19 nmol/min/mg
Km ([6]; Michaelis-Menten parameters): 49 ± 7 µM
Vmax ([6]; Michaelis-Menten parameters): 633 ± 24 nmol/min/mg
optimum temperature ([6]; pH 7.2, 20 minutes): approximately 37 °C
Vmax [6, 7]: 633 ± 24 × 10^−3 U/mg
kcat [6, 7]: 36.63 s⁻¹
Km [6, 8]: 49 µM
